Results published in paper PMC12731105, “Design and Synthesis of New Quinoxaline Analogs to Regenerate Sensory Auditory Hair Cells” (Cells, 2025).

Key:
HEI-OC1 cells = assay: TACS MTT cell proliferation / metabolic activity assay in HEI-OC1; format: cell-based, mouse; conditions: for Proliferative effect and metabolic activity at low concentrations: 0.1 μM to 5 μM, 24 h incubation, also stated for Neuro-2A and HT-1080; for Proliferative effect vs Qx-70 and untreated cells: HEI-OC1, TACS MTT; for Metabolic and proliferative activities at high concentrations: concentrations higher than 5 μM, across all three lines
Description: (§1) HEI-OC1 cells derived from the mouse OC (kindly provided by Dr. F. Kalinec) were cultured under permissive conditions (33 °C, 10% CO2) as described in [22]. Additionally, we assessed the activity of Qx-derived compounds in the mouse neuroblastoma cell line, Neuro-2A, and the human fibrosarcoma HT-1080 (ATCC, Manassas, VA, USA) following the standard cell culture guidelines provided by the vendor.
(§2) In vitro cell proliferation effects of all ten initial compounds (Figure 1A,B) were tested on HEI-OC1, Neuro-2A and HT-1080 cells by TACS® 3-(4,5-dimethylthiazol-2-yl)-2,5-diphenyltetrazolium bromide (MTT) Cell Proliferation Assay (R&D Systems, Minneapolis, MN, USA, 4890-025-K), following the manufacturer’s protocol. Absorbance was measured with SpectraMax® M Series Multi-Mode Microplate Reader with Soft Max Pro 7.2 GxP Software (Molecular Devices, Sunnyvale, CA, USA), and the average OD in control cells was taken as 100% of viability. Upon selecting the most viable compounds (Qx-294 and Qx-301), we proceeded with in vivo experiments. For zebrafish treatment, animals were incubated for varied times with different concentrations (50, 100, 150, 200, 250, and 300 μg/mL) of Qx-294 or Qx-301 diluted in swimming (E3) media or administered via IP injections. Mice treatment followed the same procedures as described in [18]. Following treatment, animals or tissue samples were incubated in Click-it EdU or Click-it Plus TUNEL kits (Thermo Scientific, Waltham, MA, USA), following the manufacturer’s instructions to label proliferating and apoptotic cells, respectively.

Neuro-2A = assay: TACS MTT cell proliferation / metabolic activity assay in Neuro-2A; format: cell-based, mouse; conditions: for Increase in MTT absorbance compared to DMSO controls and untreated cells: low-dose exposure (≤5 μM); for MTT absorbance change at higher concentrations: ≥5 μM
Description: as §1, §2

HT-1080 = assay: TACS MTT cell proliferation / metabolic activity assay in HT-1080; format: cell-based, human; conditions: for Increase in MTT absorbance compared to DMSO controls and untreated cells: HT-1080, low-dose exposure (≤5 μM); for MTT absorbance change at higher concentrations: HT-1080, ≥5 μM
Description: as §1, §2

[1] = test system: zebrafish neuromast cells; assay: TUNEL assay in zebrafish neuromasts; format: in vivo, zebrafish (Danio rerio); conditions: 400 μM, 6 h
Description: Absorbance was measured with SpectraMax® M Series Multi-Mode Microplate Reader with Soft Max Pro 7.2 GxP Software (Molecular Devices, Sunnyvale, CA, USA), and the average OD in control cells was taken as 100% of viability. […] Mice treatment followed the same procedures as described in [18]. Following treatment, animals or tissue samples were incubated in Click-it EdU or Click-it Plus TUNEL kits (Thermo Scientific, Waltham, MA, USA), following the manufacturer’s instructions to label proliferating and apoptotic cells, respectively.

| SMILES | Proliferative effect and metabolic activity at low concentrations (HEI-OC1 cells) | Proliferative effect vs Qx-70 and untreated cells (HEI-OC1 cells) | Metabolic and proliferative activities at high concentrations (HEI-OC1 cells) | Increase in MTT absorbance compared to DMSO controls and untreated cells (Neuro-2A) | MTT absorbance change at higher concentrations (Neuro-2A) | Increase in MTT absorbance compared to DMSO controls and untreated cells (HT-1080) | MTT absorbance change at higher concentrations (HT-1080) | Cell death (TUNEL) in neuromasts, positive control [1] |
| --- | --- | --- | --- | --- | --- | --- | --- | --- |
| CCNc1cnc2ccccc2n1 [Qx-292, 2-(ethylamine)-quinoxaline] | high proliferative effect and increased metabolic activity | significant and reproducible proliferative effects greater than those of Qx-70 and the untreated cells | declined | ≤ 9% | moderate reductions | ≤ 9% | moderate reductions | – |
| c1ccc2nc(N3CCSCC3)cnc2c1 [Qx-295, 2-(thiomorpholine)-quinoxaline] | high proliferative effect and increased metabolic activity | significant and reproducible proliferative effects greater than those of Qx-70 and the untreated cells | declined | ≤ 9% | moderate reductions | ≤ 9% | moderate reductions | – |
| CC(=O)N1CCN(c2cnc3ccccc3n2)CC1 [Qx-296, 2-(4-acetylpiperazine)-quinoxaline] | high proliferative effect and increased metabolic activity | significant and reproducible proliferative effects greater than those of Qx-70 and the untreated cells | declined | ≤ 9% | moderate reductions | ≤ 9% | moderate reductions | – |
| N.N.[Cl][Pt][Cl] [cisplatin, reference compound] | – | – | – | – | – | – | – | extensive cell death |
